The nature of one data set: 水溶性値 (water solubility). In kind it is physicochemical. To be noted: for solubility: water, M (mol dm-3).
The next data set relates to B16 cells [B16細胞]. Briefly: Permeability (浸透性) into B16 cells, residual intracellular boron by ICP-MS. In kind it is cell-based, human. To be noted: 24 h.
Data set [1] in a line: Cytotoxicity in cultured  (B16). As to conditions: human, B16 cells. In kind it is cell-based, human.
Data set [2] concerns B-16 human melanoma cells (B16) [B−16ヒト黒色癌細胞(B16)]. Briefly: Cytotoxicity in cultured  (B16). In kind it is cell-based. As to conditions: 50% or more not killed even after 3 days at 1.77×10^-2 M.
Data set [3] deals with TIG-1-20 human infant germ cells (T20) [TIG−1−20ヒト乳児胚芽細胞(T20)]. Briefly: Permeability (浸透性) into T20 cells, residual intracellular boron by ICP-MS. As to conditions: boron compound 0.4 mmol, 37°C, 24 h. In kind it is cell-based.
Setting [4] is: permeability B16 versus T20, 37°C.

These results are taken from patent publication JPH0776588A, “p−ボロノフェニルアラニン誘導体、その製造方法及び該誘導体の中間体化合物” (Nippon Aluminum Alkyls Ltd, priority 1993, dated 1995).

What is called solubility is the dissolved amount per volume that the medium holds. What is called IC50 is the concentration that gives 50% inhibition. Read a high IC50 as weaker potency.

≈ marks a conversion by molar mass, not a printed value.

For `NC(Cc1ccc(B(O)O)cc1)C(=O)NC(CO)CO` (stereo not shown) [化合物(1)], the “water solubility value relative to BPA” value in “水溶性値 (water solubility)” (ratio to BPA) is recorded as about 100 fold. The molecule also displayed a solubility in “水溶性値 (water solubility)” of 660 mM (≈ 186 mg/mL). Besides, the “permeability into B16 cells (in words, versus BPA)” value in the data set on B16 cells [B16細胞] (boron compound 0.4 mmol, 37°C) is given as “BPAよりわずかに高い浸透性”. In addition, in the data set on B16 cells [B16細胞] (setting [4]), the “selectivity for B16 over T20” value is recorded as at least 5 fold. The cytotoxicity at 72 h, 17700 µM in data set [1] (compound at 1.77×10^-2 M, even after 3 days, read-out: cells killed) was under 50%. For the same molecule, in data set [2], the “IC50 (in words)” value is “高い”. Moreover, in data set [3], the “permeability into T20 cells (in words, versus BPA)” value was “BPAよりはるかに低かった”.

Regarding `NC(Cc1ccc(B(O)O)cc1)C(=O)O` (racemic) [BPA, p−ボロノフェニルアラニン, reference compound], in “水溶性値 (water solubility)”, the solubility came out at 7.66 mM (≈ 1.6 mg/mL). In addition, the “selectivity for B16 over T20 (in words)” value in the data set with B16 cells [B16細胞] (setting [4]) is reported as “殆ど選択性がない”. Besides, in data set [1] (similar culture conditions (compound (1): after 3 days)), the IC50 at 72 h was 8.55 mM.
